By IC50 is commonly meant the midpoint of a concentration-inhibition curve.

Each structure is given as a SMILES string. Read-outs that look alike come from different tables or passages of the source.

The nature of assay [1]: Peroxynitrite scavenging assay. Conditions: 20 µM; SIN-1 as generator; DHR123 probe. Here is the method: The effects of the BABT derivatives on peroxynitrite scavenging activities were also examined using SIN-1 as an RNS generator and dihydrorhodamine (DHR123) as an ROS indicator. DHR123 was converted to fluorescent rhodamine 123 by peroxynitrite generated by SIN-1. Therefore, the peroxynitrite scavenging activities of 1–14 were assessed by measuring the fluorescence of rhodamine 123. BABT derivatives and penicillamine, the positive control, were used at a concentration of 20 µM.
The peroxynitrite scavenging activities of the BABT derivatives were assessed using the method developed by Kooy, involving the monitoring of highly fluorescent rhodamine 123, which was rapidly produced from non-fluorescent DHR123 in the presence of peroxynitrite. Rhodamine buffer (pH 7.4) was composed of 50 mM sodium phosphate dibasic, 50 mM sodium phosphate monobasic, 90 mM sodium chloride, 5 mM potassium chloride, and 100 µM DTPA. A 10 µL aliquot of BABT derivatives or PCA (final concentration: 20 µM) was seeded in a black 96-well plate. Then, 10 µL of SIN-1 (10 µM) was added to induce radical species generation and mixed with 180 µL of rhodamine buffer. Fluorescence intensity was measured at emission and excitation wavelengths of 535 and 485 nm, respectively, using a fluorescence microplate reader (Berthold Technologies GmbH & Co.). PCA was used as the positive control.

The subject of another assay is mushroom tyrosinase. As to the kind of experiment: Mushroom tyrosinase inhibition assay. It counts as biochemical. To be noted: for IC50: mean ± SEM of three experiments. The protocol:
As mushroom tyrosinase is commercially available and relatively cheap, it is used as a tool for the identification of novel tyrosinase inhibitors. Here, we examined the tyrosinase inhibitory activities of the 14 BABT derivatives against mushroom tyrosinase in the presence of L-tyrosine or L-dopa as substrates.
Mushroom tyrosinase inhibitory activities of BABT derivatives were determined as described previously, with minor modifications. L-Tyrosine and L-dopa were used as substrates to evaluate the enzyme activity. […] Assay mixtures were incubated at 37 °C for 30 min, and dopachrome amounts synthesized were determined by measuring the optical density of each well at 475 nm using a microplate reader (VersaMax; Molecular Devices, Sunnyvale, CA, USA).

A short description of assay [2]: SIN-1-induced ROS scavenging assay. Conditions: 20 µM; SIN-1 as ROS generator; DCFH-DA probe. From the text: The scavenging activities of the BABT derivatives 1–14 against ROS and peroxynitrite (ONOO^−) were investigated because the antioxidant activities of the compounds may modulate melanogenesis. To measure the ROS scavenging activities of BABT derivatives, 2′,7′-dichlorodihydrofluorescein diacetate (DCFH-DA) and 3-morpholinosydnonimine (SIN-1) were used as a fluorogenic probe and ROS generator, respectively. The reaction of DCFH-DA with esterase produces 2′,7′-dichlorodihydrofluorescein (DCFH), which generates the fluorescent compound 2′,7′-dichlorofluorescein (DCF) by reacting with ROS produced by SIN-1. Therefore, ROS scavenging activities were determined by measuring the DCF fluorescence remaining after the BABT derivatives scavenged the ROS generated by SIN-1. […] BABT derivatives and Trolox, the positive control, were used at a concentration of 20 µM.
The ROS scavenging activities of the BABT derivatives were measured using an oxidant-sensitive fluorescent probe. Derivatives or Trolox (10 µL; final concentration: 20 µM) were seeded in a black 96-well plate. Then, 10 µL of SIN-1 (10 µM) was added to induce radical species generation and mixed with 180 µL of sodium phosphate buffer (pH 7.4) containing 12.5 µM DCF-DA and 600 units of esterase. Fluorescence intensity was measured at emission and excitation wavelengths of 535 and 485 nm, respectively, using a fluorescence microplate reader (Berthold Technologies GmbH & Co., Wien, Austria). Trolox was used as the positive control.

The nature of assay [3]: DPPH radical scavenging assay. To be noted: test samples 500 µM; DPPH 0.18 mM; 30 min in the dark. Here is the method:
DPPH is a light-sensitive compound containing free radicals. The DPPH assay is one of the most common methods for evaluating the antioxidant activity of a compound. The effects of BABT derivatives on DPPH radical scavenging activities were evaluated using L-ascorbic acid as a positive reference control. DPPH radical scavenging activities were measured after leaving the mixed samples (test samples of 500 µM plus DPPH solution of 0.18 mM) in the dark for 30 min. To determine the radical scavenging activities, the absorbance of the mixed samples was measured at 517 nm.
According to previously described methods, with minor modifications, the DPPH radical scavenging activities of BABT derivatives 1–14 were measured. A DPPH (0.2 mM) and methanol solution (180 µL) was mixed with 20 µL of a DMSO solution containing 5 mM BABT derivative, or with 20 µL of an aqueous solution of 5 mM L-ascorbic acid, in each well of a 96-well plate and kept at ambient temperature in the dark for 30 min. The optical density of each well was measured at 517 nm using a microplate reader (VersaMax; Molecular Devices). L-Ascorbic acid was used as a positive reference control, and the DPPH radical scavenging abilities of BABT derivatives were compared with those of L-ascorbic acid. All experiments were performed independently, thrice.
In general terms: The DPPH test is a chemical assay of radical scavenging.

The subject of the next assay is B16F10 cells. As to the kind of experiment: Measurement of extracellular and intracellular melanin levels. The class given is cell-based, murine. Conditions: 20 µM; α-MSH plus IBMX stimulated B16F10 cells; 72 h. The protocol: To investigate the effects of derivative 8 on extracellular and intracellular melanin levels in B16F10 cells, the cells were treated with various concentrations (5, 10, and 20 µM) of derivative 8 for 1 h, in addition to co-treatment with α-MSH (0.5 µM) and 3-isobutyl-1-methylxanthine (IBMX; 200 µM) to enhance melanin biosynthesis in B16F10 cells. After 72 h of incubation, the effects of 8 on extracellular and intracellular melanin levels were determined by measuring the melanin absorbance in the culture media and cell lysates, respectively, at 405 nm using a microplate reader.
The effect of 8 on melanin production was measured using a standard melanin content assay, with minor modifications. Briefly, B16F10 cells were seeded at a density of 1 × 10^5 cells per well and allowed to adhere to the well bottoms for 24 h under the conditions used for cell cultures. […] After incubation for 72 h at 37 °C in a 5% CO2 atmosphere, melanin levels were determined. To measure the extracellular melanin levels, the absorbance of each well of the culture medium was measured at 405 nm. […] Cultured cells were washed twice with PBS, and the pellets obtained were dissolved using 1 N NaOH solution (200 µL, 10% DMSO) at 60 °C for 1 h. Cell lysates were transferred to the wells of a 96-well plate, and the optical density of melanin dissolved in each well was measured at 405 nm in aqueous DMSO solution using a microplate reader (VersaMax; Molecular Devices).

Where [4] appears, read: substrate L-dopa, read-out: IC50 (µM) L-Dopa.
[5] abbreviates: substrate L-tyrosine, read-out: IC50 (µM) L-Tyrosine.

On to `O=C1N=C(NCc2ccccc2)S/C1=C\c1ccc(O)cc1` [Compound 1, (Z)-2-(benzylamino)-5-(4-hydroxybenzylidene)thiazol-4(5H)-one], for which the “peroxynitrite scavenging activity (in words)” value in assay [1] is “strong ROS and peroxynitrite scavenging activities”. For the same compound, in the assay with mushroom tyrosinase (L-dopa versus L-tyrosine as substrate), the “fold higher IC50 value with L-dopa than with L-tyrosine” value is on record as 2 fold. Besides, the values for the IC50 at mushroom tyrosinase (setting [4]) and on mushroom tyrosinase (setting [5]) were 65.1 ± 8.29 µM and 27.5 ± 2.93 µM, respectively. In assay [2], the “ROS scavenging activity (in words)” value is reported as “strongly reduced the ROS levels enhanced by SIN-1”.

Regarding `COc1ccc(/C=C2\SC(NCc3ccccc3)=NC2=O)cc1` [Compound 2, (Z)-2-(benzylamino)-5-(4-methoxybenzylidene)thiazol-4(5H)-one], the “fold decrease of tyrosinase inhibitory activity versus derivative 1” value with mushroom tyrosinase (substrate L-dopa) came out at 3.7 fold. The results for the IC50 on mushroom tyrosinase (setting [4]) and on mushroom tyrosinase (setting [5]) were 239.4 ± 2.38 µM and 126 ± 10 µM, respectively. In the assay with mushroom tyrosinase (substrate L-tyrosine), the “fold lower tyrosinase inhibitory activity than derivative 1” value turned out to be 4.6 fold. Moreover, in assay [2], the “ROS scavenging activity (in words)” value was “strongly reduced the ROS levels enhanced by SIN-1”.

Regarding `O=C1N=C(NCc2ccccc2)S/C1=C\c1ccc(F)cc1F` [Compound 3, (Z)-2-(benzylamino)-5-(2,4-difluorobenzylidene)thiazol-4(5H)-one], the IC50 at mushroom tyrosinase (setting [4]) and at mushroom tyrosinase (setting [5]) was > 300 µM throughout. Further, the “ROS scavenging activity (in words)” value in assay [2] was “moderate ROS scavenging activities”.

For `O=C1N=C(NCc2ccccc2)S/C1=C\c1ccc(F)c(F)c1` [Compound 4, (Z)-2-(benzylamino)-5-(3,4-difluorobenzylidene)thiazol-4(5H)-one], the IC50 was > 300 µM on mushroom tyrosinase (setting [4]) and 289 ± 14.7 µM on mushroom tyrosinase (setting [5]). In addition, the “ROS scavenging activity (in words)” value in assay [2] is on record as “moderate ROS scavenging activities”.

For `COc1cc(/C=C2\SC(NCc3ccccc3)=NC2=O)ccc1O` [Compound 5, (Z)-2-(benzylamino)-5-(4-hydroxy-3-methoxybenzylidene)thiazol-4(5H)-one], the IC50 at mushroom tyrosinase (setting [4]) was > 300 µM; at mushroom tyrosinase (setting [5]), 148.3 ± 1.12 µM. In assay [2], the “ROS scavenging activity (in words)” value is recorded as “moderate ROS scavenging activities”.

Regarding `CCOc1cc(/C=C2\SC(NCc3ccccc3)=NC2=O)ccc1O` [Compound 6, (Z)-2-(benzylamino)-5-(3-ethoxy-4-hydroxybenzylidene)thiazol-4(5H)-one], the IC50 at mushroom tyrosinase (setting [4]) was 248 ± 11.5 µM; at mushroom tyrosinase (setting [5]) it was 199 ± 8.57 µM.

Consider `COc1ccc(/C=C2\SC(NCc3ccccc3)=NC2=O)c(OC)c1` [Compound 10, (Z)-2-(benzylamino)-5-(2,4-dimethoxybenzylidene)thiazol-4(5H)-one], for which the IC50 at mushroom tyrosinase (setting [4]) came out at 214 ± 6.29 µM; at mushroom tyrosinase (setting [5]), 293 ± 13.1 µM. Besides, the “mushroom tyrosinase inhibitory activity (in words)” value in the assay on mushroom tyrosinase (substrate L-tyrosine) is reported as “little-to-no mushroom tyrosinase inhibitory activity”.

On to `COc1ccc(/C=C2\SC(NCc3ccccc3)=NC2=O)cc1OC` [Compound 11, (Z)-2-(benzylamino)-5-(3,4-dimethoxybenzylidene)thiazol-4(5H)-one], for which the IC50 at mushroom tyrosinase (setting [4]) and on mushroom tyrosinase (setting [5]) was > 300 µM in each case. Further, the “mushroom tyrosinase inhibitory activity (in words)” value with mushroom tyrosinase (substrate L-tyrosine) was “little-to-no mushroom tyrosinase inhibitory activity”.

In the case of `COc1cc(/C=C2\SC(NCc3ccccc3)=NC2=O)cc(OC)c1O` [Compound 12, (Z)-2-(benzylamino)-5-(4-hydroxy-3,5-dimethoxybenzylidene)thiazol-4(5H)-one], in assay [3], the “DPPH radical scavenging activity, % inhibition” value was 62%. In addition, the figures for the IC50 on mushroom tyrosinase (setting [4]) and at mushroom tyrosinase (setting [5]) were > 300 µM and 166 ± 8.04 µM, respectively.

As for `CC(C)(C)c1cc(/C=C2\SC(NCc3ccccc3)=NC2=O)cc(C(C)(C)C)c1O` [Compound 13, (Z)-2-(benzylamino)-5-(3,5-di-tert-butyl-4-hydroxybenzylidene)thiazol-4(5H)-one], the IC50 is > 300 µM on mushroom tyrosinase (setting [4]) and 137 ± 10.7 µM on mushroom tyrosinase (setting [5]).

On to `COc1cc(/C=C2\SC(NCc3ccccc3)=NC2=O)cc(OC)c1OC` [Compound 14, (Z)-2-(benzylamino)-5-(3,4,5-trimethoxybenzylidene)thiazol-4(5H)-one], for which the IC50 was 231 ± 7.43 µM on mushroom tyrosinase (setting [4]) and 192 ± 9.04 µM on mushroom tyrosinase (setting [5]). The “mushroom tyrosinase inhibitory activity (in words)” value in the assay with mushroom tyrosinase (substrate L-tyrosine) is given as “little-to-no mushroom tyrosinase inhibitory activity”.

Consider `O=C1O[C@H]([C@@H](O)CO)C(O)=C1O` [L-Ascorbic acid, L-ascorbic acid, reference compound], for which the “DPPH radical scavenging activity, % inhibition” value in assay [3] amounted to 97%.

For `O=c1cc(CO)occ1O` [kojic acid, Kojic acid, reference compound], in the assay with B16F10 cells, the “extracellular melanin levels compared to untreated control” value stood at 1.5 fold and the “intracellular melanin levels compared to untreated control” value was found to be 1.9 fold.

For `CC(C)(S)[C@@H](N)C(=O)O` [penicillamine, reference compound], the “peroxynitrite scavenging activity (in words)” value in assay [1] is “significantly reduced the peroxynitrite levels increased by SIN-1 treatment”.

For the origin of these results see article PMC9865752, “Design and Synthesis of (Z)-2-(Benzylamino)-5-benzylidenethiazol-4(5H)-one Derivatives as Tyrosinase Inhibitors and Their Anti-Melanogenic and Antioxidant Effects” (Molecules, 2023).
